The structures appear in SMILES notation. Bounds are passed on as bounds.

The subject of assay [1] is MM.1R (expressing wild type KRAS). In words: Proliferation Assay (Cell Viability Assay). The class given is cell-based. Conditions: Homo sapiens, read-out: MM.1R IC50 (nM) Multiple Myloma. The procedure, abridged:
(§1)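 Cells plated at 2000–5000/well overnight, then treated 2–4 days at 37 °C, 5% CO2 with compound at 10 μM single dose or serial dilutions for IC50, in 0.3% DMSO and 10% FBS. Viability read by CellTiter 96 Aqueous One (MTS); % proliferation inhibition calculated from raw data.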

Assay [2] concerns GP2d (expressing KRas G12D mutant). Description: Proliferation Assay (Cell Viability Assay). The class given is cell-based. Conditions: Homo sapiens, Proliferation assay, read-out: GP2d IC50 (nM) Colorectal. In outline:
as §1

A further assay relates to A375 (wild type Kras). Description: Proliferation Assay (Cell Viability Assay). The assay is classed as cell-based. Conditions: Homo sapiens, A-375; Proliferation assay, A375; read-out: A375 IC50 (nM) Melanoma. In outline:
as §1

For the next assay, the system named is PUMA expression. In words: Cell-based Puma expression assay (western blot). Also on record: species or system human. On the procedure:
Biological Example 4: Puma Expression and Caspases Activation Assay
Protocols for Cell-Based Puma Expression and Caspase Activation Assays
Cell lines: All human tumor-derived cancer cell lines were purchased from American Type Culture Collection. Human tumor-derived cancer cell lines Panc-1 (expressing KRas G12D mutant), MiaPaca-2 (expressing KRas G12C mutant), A549 (expressing KRas G12S mutant), and A375 (expressing wild type KRas) were grown in complete DMEM-High Glucose medium and NCI-H1975 (expressing wild type KRas), MM.1R (expressing wild type KRas) and IM.9 (expressing wild type KRas) were grown in RPMI1640 medium. Human tumor-derived cancer cell line BT-549 (expressing wild type KRas) was grown in RPMI1640 medium with 11.8U insulin. All mediums were supplemented with penicillin (100 U/mL), streptomycin (100 μg/mL), and 10% heat-inactivated FBS at 37° C. in a humidified incubator with 5% CO2.
Method: Cells were plated at 300,000 to 800,000 cells/well density in a 6-well plate in the presence of 10% FBS. The next day small molecules to be tested were added to the cells in the final concentration of 3 μM in the presence of 0.3% DMSO for 48 hours incubation at 37° C. For IC50 value determination, serial dilutions of compounds were added to cells under the same conditions. Following 48 hours of incubation cells were lysed with lysis buffer containing 1% Triton X-100, EDTA, and Halt™ Protease & Phosphatase Inhibitor Cocktail (Thermo Scientific). Protein concentration was assessed by BCA protein assay (Thermo Scientific). Increase expression of PUMA and active/cleaved forms of caspase 3, caspase 6 and caspase 9 were detected by western blot.
Western blot protocol: Equal amounts of protein (15-50 μg) were separated by SDS-PAGE and transferred to nitrocellulose membranes (Invitrogen by Thermo Fisher Scientific). The membrane was stained with Ponceau S Stain (Boston BioProducts) to verify uniform protein loading. Membranes were blocked with 10% milk and expression levels of PUMA was assessed by incubating overnight at 4° C. with the antibody PUMA (D30C10) from Cell Signaling Technology (#12450) and active/cleaved forms of caspase 3, caspase 6 and caspase 9 by incubating overnight at 4° C. with the following antibodies: cleaved caspase-3 (Asp175) (5A1E), cleaved caspase-6 (Asp162) and cleaved caspase-9 (Asp330) (D2D4) (all antibodies from Cell Signaling Technology). Then the membranes were incubated with HRP-conjugated secondary antibody (Jackson Immunoresearch, West Grove, PA). Bands were incubated in Amersham ECL Prime Western Blotting Detection Reagent (GE Healthcare) and visualized using the ChemiDoc MP imaging system (Bio-Rad).
In general terms: In western blotting, separated proteins are transferred to a membrane and probed.

A further assay concerns active/cleaved caspase 9. In words: Cell-based caspase activation assay (western blot). The arrangement: species or system human.
Another assay deals with active/cleaved caspase 3. Description: Cell-based caspase activation assay (western blot). The arrangement: species or system human.
The next assay concerns active/cleaved caspase 6. In words: Cell-based caspase activation assay (western blot). Also on record: species or system human.

In the case of `Cc1c(-c2ccn(C(C)C)n2)cn2nc(-c3nccn3C)nc(Nc3ccn(C4CC4)n3)c12` [Compound 84, N-(1-Cyclopropyl-1H-pyrazol-3-yl)-6-(1-isopropyl-1H-pyrazol-3-yl)-5-methyl-2-(1-methyl-1H-imidazol-2-yl)pyrrolo[2,1-f][1,2,4]triazin-4-amine], the IC50 (as a rule, the concentration at which inhibition is half-maximal) in assay [1] is under 1 nM; in assay [2], 1 to 10 nM; with A375 (wild type Kras), 1 to 10 nM.

As for `Cc1c(-c2ccn(C(C)C)n2)cn2nc(-c3nccn3C)nc(Nc3cc4n(n3)CCO4)c12` [Compound 91, N-(6-(1-Isopropyl-1H-pyrazol-3-yl)-5-methyl-2-(1-methyl-1H-imidazol-2-yl)pyrrolo[2,1-f][1,2,4]triazin-4-yl)-2,3-dihydropyrazolo[5,1-b]oxazol-6-amine], the “Increased PUMA expression” value with PUMA expression (A549, after 48 hours) is listed as “yes”; in the assay with PUMA expression (BT-549, after 48 hours) it was “yes”; in the assay with PUMA expression (MiaPaca2, after 48 hours) it was “yes”. The “Caspase 9 activation” value is reported as “yes” with active/cleaved caspase 9 (A549, after 48 hours); “yes” in the assay with active/cleaved caspase 9 (BT-549, after 48 hours); “yes” in the assay with active/cleaved caspase 9 (MiaPaca2, after 48 hours). Also, the “Caspase 3 activation” value is given as “yes” with active/cleaved caspase 3 (A549, after 48 hours); “yes” in the assay on active/cleaved caspase 3 (BT-549, after 48 hours); “yes” in the assay on active/cleaved caspase 3 (MiaPaca2, after 48 hours). For the same compound, the “Caspase 6 activation” value in the assay with active/cleaved caspase 6 (A549, after 48 hours) is given as “yes”; in the assay with active/cleaved caspase 6 (BT-549, after 48 hours), “yes”; in the assay on active/cleaved caspase 6 (MiaPaca2, after 48 hours) it was “yes”. Moreover, the IC50 in the assay on A375 (wild type Kras) fell in the range of 1 to 10 nM.

The record behind these values is patent US12459951B2, “Compounds that interact with RAS superfamily proteins for treatment of cancers, inflammatory diseases, rasopathies, and fibrotic disease” (SHY Therapeutics, LLC, priority 2022, dated 2025).
